From article PMC11859928, “Design, Synthesis, and Antiproliferative Activity of Novel Indole/1,2,4-Triazole Hybrids as Tubulin Polymerization Inhibitors” (Pharmaceuticals, 2025)

Tests used:
Assay in all cases: NCI one-dose assay
Assay type in all cases: cell-based
EKVX = conditions: Homo sapiens, Non-small cell lung cancer, read-out: Cell growth inhibition %
Procedure: (§1) The National Cancer Institute (NCI), Bethesda, USA, selected the final compounds 6a–j and 7a–j for in vitro anticancer screening. An initial in vitro single-dose anticancer experiment was performed with the entire NCI 60 cell lines derived from nine tumor subpanel cancer cell lines. The results for each compound were illustrated as a mean graph showing the percentage growth of treated cells compared to untreated control cells (see Supplementary Materials).
(§2) The NCI anticancer screening process has been thoroughly detailed. The Drug Evaluation Branch of the National Cancer Institute in Bethesda, […], USA, established the procedure and conducted the anticancer assay on 60 human tumor cell lines from nine neoplastic cancers.

HT29 = conditions: Homo sapiens, HT-29, HT29, Colon cancer, read-out: Cell growth inhibition %
Procedure: as §1, §2

SK-MEL-28 = conditions: Homo sapiens, SK-MEL-28, Melanoma, read-out: Cell growth inhibition %
Procedure: as §1, §2

MOLT-4 = conditions: Homo sapiens, MOLT-4, Leukemia, read-out: Cell growth inhibition %
Procedure: as §1, §2

HCT-116 = conditions: Homo sapiens, HCT-116, Colon cancer, read-out: Cell growth inhibition %
Procedure: as §1, §2

HOP-62 = conditions: Homo sapiens, HOP-62, Non-small cell lung cancer, read-out: Cell growth inhibition %
Procedure: as §1, §2

SF-268 = conditions: Homo sapiens, SF-268, CNS cancer, read-out: Cell growth inhibition %
Procedure: as §1, §2

SK-MEL-2 = conditions: Homo sapiens, SK-MEL-2, Melanoma, read-out: Cell growth inhibition %
Procedure: as §1, §2

SW-620 = conditions: Homo sapiens, SW-620, Colon cancer, read-out: Cell growth inhibition %
Procedure: as §1, §2

K-562 = conditions: Homo sapiens, K562, K-562, Leukemia, read-out: Cell growth inhibition %
Procedure: as §1, §2

SK-OV-3 = conditions: Homo sapiens, SK-OV-3, Ovarian cancer, read-out: Cell growth inhibition %
Procedure: as §1, §2

CAKI-1 = conditions: Homo sapiens, CAKI-1, Renal cancer, read-out: Cell growth inhibition %
Procedure: as §1, §2

SR = conditions: Homo sapiens, Leukemia, read-out: Cell growth inhibition %
Procedure: as §1, §2

UACC-257 = conditions: Homo sapiens, UACC-257, Melanoma, read-out: Cell growth inhibition %
Procedure: as §1, §2

HL-60(TB) = conditions: Homo sapiens, Leukemia, read-out: Cell growth inhibition %
Procedure: as §1, §2

A549/ATCC = conditions: Homo sapiens, Non-small cell lung cancer, read-out: Cell growth inhibition %
Procedure: as §1, §2

NCI-H322M = conditions: Homo sapiens, Non-small cell lung cancer, read-out: Cell growth inhibition %
Procedure: as §1, §2

MDA-MB-231/ATCC = conditions: Homo sapiens, Breast cancer, read-out: Cell growth inhibition %
Procedure: as §1, §2

MDA-MB-468 = conditions: Homo sapiens, MDA-MB-468, Breast cancer, read-out: Cell growth inhibition %
Procedure: as §1, §2

DU-145 = conditions: Homo sapiens, DU-145, Prostate cancer, read-out: Cell growth inhibition %
Procedure: as §1, §2

CCRF-CEM = conditions: Homo sapiens, Leukemia, read-out: Cell growth inhibition %
Procedure: as §1, §2

HCC-2998 = conditions: Homo sapiens, HCC-2998, Colon cancer, read-out: Cell growth inhibition %
Procedure: as §1, §2

SNB-19 = conditions: Homo sapiens, SNB-19, CNS cancer, read-out: Cell growth inhibition %
Procedure: as §1, §2

KM12 = conditions: Homo sapiens, KM12, Colon cancer, read-out: Cell growth inhibition %
Procedure: as §1, §2

M14 = conditions: Homo sapiens, M14, Melanoma, read-out: Cell growth inhibition %
Procedure: as §1, §2

OVCAR-3 = conditions: Homo sapiens, OVCAR-3, Ovarian cancer, read-out: Cell growth inhibition %
Procedure: as §1, §2

SF-295 = conditions: Homo sapiens, SF-295, CNS cancer, read-out: Cell growth inhibition %
Procedure: as §1, §2

HS 578 T = conditions: Homo sapiens, Breast cancer, read-out: Cell growth inhibition %
Procedure: as §1, §2

COLO 205 = conditions: Homo sapiens, COLO 205, Colon cancer, read-out: Cell growth inhibition %
Procedure: as §1, §2

OVCAR-4 = conditions: Homo sapiens, OVCAR-4, Ovarian cancer, read-out: Cell growth inhibition %
Procedure: as §1, §2

T-47D = conditions: Homo sapiens, T47D, Breast cancer, read-out: Cell growth inhibition %
Procedure: as §1, §2

HCT-15 = conditions: Homo sapiens, HCT-15, Colon cancer, read-out: Cell growth inhibition %
Procedure: as §1, §2

MCF7 = conditions: Homo sapiens, MCF7, Breast cancer, read-out: Cell growth inhibition %
Procedure: as §1, §2

NCI-H522 = conditions: Homo sapiens, NCI-H522, Non-small cell lung cancer, read-out: Cell growth inhibition %
Procedure: as §1, §2

ACHN = conditions: Homo sapiens, Renal cancer, read-out: Cell growth inhibition %
Procedure: as §1, §2

SN12C = conditions: Homo sapiens, Renal cancer, read-out: Cell growth inhibition %
Procedure: as §1, §2

BT-549 = conditions: Homo sapiens, BT-549, Breast cancer, read-out: Cell growth inhibition %
Procedure: as §1, §2

| Compound | inhibition at 10 µM (EKVX) [%] | inhibition at 10 µM (HT29) [%] | inhibition at 10 µM (SK-MEL-28) [%] | inhibition at 10 µM (MOLT-4) [%] | inhibition at 10 µM (HCT-116) [%] | inhibition at 10 µM (HOP-62) [%] | inhibition at 10 µM (SF-268) [%] | inhibition at 10 µM (SK-MEL-2) [%] | inhibition at 10 µM (SW-620) [%] | inhibition at 10 µM (K-562) [%] | inhibition at 10 µM (SK-OV-3) [%] | inhibition at 10 µM (CAKI-1) [%] | inhibition at 10 µM (SR) [%] | inhibition at 10 µM (UACC-257) [%] | inhibition at 10 µM (HL-60(TB)) [%] | inhibition at 10 µM (A549/ATCC) [%] | inhibition at 10 µM (NCI-H322M) [%] | inhibition at 10 µM (MDA-MB-231/ATCC) [%] | inhibition at 10 µM (MDA-MB-468) [%] | inhibition at 10 µM (DU-145) [%] | further results |
| --- | --- | --- | --- | --- | --- | --- | --- | --- | --- | --- | --- | --- | --- | --- | --- | --- | --- | --- | --- | --- | --- |
| C=CCn1c(SCC(=O)c2ccccc2)nnc1-c1c[nH]c2ccccc12 [Compound 6a, 2-((4-Allyl-5-(1H-indol-3-yl)-4H-1,2,4-triazol-3-yl)thio)-1-phenylethanone] | 4.22 | -11.8 | -5.22 | 7.17 | 2.55 | 7.46 | -1.91 | -4.98 | 3.89 | 7.37 | -20.4 | 16.9 | 23.5 | 2.08 | 4.39 | -0.25 | -1.89 | 11.2 | 12.3 | -9.05 | inhibition at 10 µM (CCRF-CEM): 8.76%; inhibition at 10 µM (HCC-2998): -10.6%; inhibition at 10 µM (SNB-19): 1.66%; inhibition at 10 µM (KM12): -11.8%; inhibition at 10 µM (M14): 2.35%; inhibition at 10 µM (OVCAR-3): -14.8%; inhibition at 10 µM (SF-295): 3.79%; inhibition at 10 µM (HS 578 T): 2.96%; inhibition at 10 µM (COLO 205): -22.1%; inhibition at 10 µM (OVCAR-4): 2.53%; inhibition at 10 µM (T-47D): 5.03%; inhibition at 10 µM (HCT-15): 4%; inhibition at 10 µM (MCF7): 2.77%; inhibition at 10 µM (NCI-H522): 2.25%; inhibition at 10 µM (ACHN): 6.19%; inhibition at 10 µM (SN12C): 7.27%; inhibition at 10 µM (BT-549): -9.39% |
| O=C(CSc1nnc(-c2c[nH]c3ccccc23)n1-c1ccccc1)c1ccc(Br)cc1 [Compound 6i, 2-((5-(1H-Indol-3-yl)-4-phenyl-4H-1,2,4-triazol-3-yl)thio)-1-(4-bromophenyl) Ethenone] | 89.2 | 42.6 | 65.1 | 7.77 | 45.7 | 26.4 | 50.9 | 119 | 20.2 | 18 | 51.4 | 55.7 | 9.15 | 47.5 | 55.5 | 70.1 | 54.3 | 34 | 78 | 41.5 | inhibition at 10 µM (CCRF-CEM): 13.6%; inhibition at 10 µM (HCC-2998): 68.3%; inhibition at 10 µM (SNB-19): 29.8%; inhibition at 10 µM (KM12): 65.4%; inhibition at 10 µM (M14): 49%; inhibition at 10 µM (OVCAR-3): 57.5%; inhibition at 10 µM (SF-295): 66.3%; inhibition at 10 µM (HS 578 T): 47.7%; inhibition at 10 µM (COLO 205): 86.5%; inhibition at 10 µM (OVCAR-4): 53.8%; inhibition at 10 µM (T-47D): 78%; inhibition at 10 µM (HCT-15): 56%; inhibition at 10 µM (MCF7): 46.6%; inhibition at 10 µM (NCI-H522): 53.7%; inhibition at 10 µM (ACHN): 62.6%; inhibition at 10 µM (SN12C): 27.1%; inhibition at 10 µM (BT-549): 34.8% |
| Cc1ccc(C(=O)CSc2nnc(-c3c[nH]c4ccccc34)n2-c2ccccc2)cc1 [Compound 6h, 2-((5-(1H-Indol-3-yl)-4-phenyl-4H-1,2,4-triazol-3-yl)thio)-1-(p-tolyl)ethenone] | 47 | 92.9 | 51 | 38.3 | 92.3 | 92.2 | 70.3 | 15.3 | 81 | 72.8 | 76 | 87.6 | 47 | 22.7 | 56.6 | 46.7 | 25.1 | 102 | 52 | 21.1 | inhibition at 10 µM (CCRF-CEM): 39.2%; inhibition at 10 µM (HCC-2998): 33.6%; inhibition at 10 µM (SNB-19): 80.3%; inhibition at 10 µM (KM12): 49%; inhibition at 10 µM (M14): 48.9%; inhibition at 10 µM (OVCAR-3): 34.8%; inhibition at 10 µM (SF-295): 88.9%; inhibition at 10 µM (HS 578 T): 101%; inhibition at 10 µM (COLO 205): 25%; inhibition at 10 µM (OVCAR-4): 116%; inhibition at 10 µM (T-47D): 53.3%; inhibition at 10 µM (HCT-15): 56.2%; inhibition at 10 µM (MCF7): 87.5%; inhibition at 10 µM (NCI-H522): 98.6%; inhibition at 10 µM (ACHN): 79.6%; inhibition at 10 µM (SN12C): 75.1%; inhibition at 10 µM (BT-549): 77.6% |
| O/N=C(\CSc1nnc(-c2c[nH]c3ccccc23)n1-c1ccccc1)c1ccc(Cl)cc1 [Compound 7j, (Z)-2-((5-(1H-Indol-3-yl)-4-phenyl-4H-1,2,4-triazol-3-yl)thio)-1-(4-chlorophenyl) Ethanone Oxime] | 98 | 95.5 | 78.8 | 107 | 99.3 | 164 | 149 | 79.9 | 137 | 93.1 | 102 | 111 | 87.2 | 55.7 | 126 | 78.5 | 149 | 155 | 185 | 131 | inhibition at 10 µM (CCRF-CEM): 105%; inhibition at 10 µM (HCC-2998): 83%; inhibition at 10 µM (SNB-19): 82.6%; inhibition at 10 µM (KM12): 78.6%; inhibition at 10 µM (M14): 147%; inhibition at 10 µM (OVCAR-3): 65.8%; inhibition at 10 µM (SF-295): 85.9%; inhibition at 10 µM (HS 578 T): 132%; inhibition at 10 µM (COLO 205): 89.8%; inhibition at 10 µM (OVCAR-4): 181%; inhibition at 10 µM (T-47D): 96.1%; inhibition at 10 µM (HCT-15): 148%; inhibition at 10 µM (MCF7): 96.7%; inhibition at 10 µM (NCI-H522): 87.6%; inhibition at 10 µM (ACHN): 96.7%; inhibition at 10 µM (SN12C): 116%; inhibition at 10 µM (BT-549): 167% |
